Values quoted from earlier work, collected in patent US20090163599A1, “Mif adsorbant” (priority 2004, published 2009).

Molecular target: T1, dopachrome tautomerase activity of MIF (Homo sapiens, UniProt P14174)
T1 sequence (P14174 2-115 limits assumed): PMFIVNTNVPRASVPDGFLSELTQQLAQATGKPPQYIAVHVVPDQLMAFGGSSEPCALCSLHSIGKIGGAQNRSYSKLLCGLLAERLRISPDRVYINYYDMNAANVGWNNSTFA
Conditions: known from Swope et al, J Biol Chem 273: 14877-14884, 1998

SMILES	inhibiting effect on the dopachrome tautomerase activity of MIF
CCCCCCSC[C@H](NC(=O)CC[C@H](N)C(=O)O)C(=O)NCC(=O)O [S-hexylglutathione]	strong inhibiting effect
CCCCCCS [hexane thiol]	strong inhibiting effect
